Patent US9114117B2, “Compounds effective against cancer” (Ingo Schmidt-Wolf, priority 2009, dated 2015)

How the values were obtained:
[1] = cited from earlier work
[2] = Relative viability of PBMCs by FACS analysis; type: cell-based; conditions: culture = 100%
Description: (§1) The peripheral blood lymphocytes (PBLs) out of the PBMCs were selected for the FACS analysis (FIG. 5). A toxicity of the cells induced a shift from viable cells to apoptotic cells (FIG. 6, 7). If the drug or its concentration is very toxic, the cells appear addition-ally in a higher extent necrotic.
(§2) DMSO, the solvent of EA and cic, was given to the PBMCs in a ratio of 1:100, as control. The values are related to the culture-control and expressed as mean±standard error of the mean (SEM) taken from 5 separate measurements. In FIG. 5 (A) samples were measured after 24, 48 and 72 h. After 0 h, the time of execution, the relative viability was defined as 100° A) for all samples. In FIG. 5 (B) the relative viability values for the samples measured after 24, 48 and 72 h.

cell line DHL-4 [3] = experiment: Relative viability of cell line DHL-4 by FACS analysis; type: cell-based; conditions: culture = 100%; for viability at 30 µM: 30 μM EA; for viability at 10 µM: 10 μM cic
Description: as §1
as §2, with “the cell line DHL-4” for “the PBMCs”, “FIG. 9” for “FIG. 5”, “as 100%” for “as 100° A)”

cell line Raji [4] = experiment: Relative viability of cell line Raji by FACS analysis; type: cell-based; conditions: Homo sapiens, culture = 100%; for viability at 30 µM: 30 μM EA; for viability at 10 µM: 10 μM cic
Description: as §1
as §2, with “the cell line Raji” for “the PBMCs”, “FIG. 13” for “FIG. 5”, “as 100%” for “as 100° A)”

cell line Raji [5] = experiment: Relative apoptosis of cell line Raji by FACS analysis; type: cell-based; conditions: culture = 0%
Description: as §1
as §2, with “the cell line Raji” for “the PBMCs”, “FIG. 14” for “FIG. 5”, “relative apoptosis” for “relative viability”, “as 0%” for “as 100° A)”

cell line OPM-2 [6] = experiment: Relative viability of myeloma cell line OPM-2 by FACS analysis; type: cell-based; conditions: Homo sapiens, culture = 100%; for viability at 30 µM: 30 μM EA; for viability at 10 µM: 10 μM cic
Description: as §1
as §2, with “the cell line OPM-2” for “the PBMCs”, “FIG. 11” for “FIG. 5”, “as 100%” for “as 100° A)”

cell line LAM-53 [7] = experiment: Relative viability of cell line LAM-53 by FACS analysis; type: cell-based; conditions: culture = 100%; for viability at 30 µM: 30 μM EA
Description: as §1
as §2, with “the cell line LAM-53” for “the PBMCs”, “FIG. 7” for “FIG. 5”, “as 100%” for “as 100° A)”

PBMCs = experiment: Relative apoptosis of PBMCs by FACS analysis; type: cell-based; conditions: culture = 0%
Description: as §1
as §2, with “FIG. 6” for “FIG. 5”, “relative apoptosis” for “relative viability”, “as 0%” for “as 100° A)”

cell line OPM-2 [8] = experiment: Relative apoptosis of myeloma cell line OPM-2 by FACS analysis; type: cell-based; conditions: culture = 0%
Description: as §1
as §2, with “the cell line OPM-2” for “the PBMCs”, “FIG. 12” for “FIG. 5”, “relative apoptosis” for “relative viability”, “as 0%” for “as 100° A)”

cell line LAM-53 [9] = experiment: Relative apoptosis of cell line LAM-53 by FACS analysis; type: cell-based; conditions: culture = 0%
Description: as §1
as §2, with “the cell line LAM-53” for “the PBMCs”, “FIG. 8” for “FIG. 5”, “relative apoptosis” for “relative viability”, “as 0%” for “as 100° A)”

cell line DHL-4 [10] = experiment: Relative apoptosis of cell line DHL-4 by FACS analysis; type: cell-based; conditions: culture = 0%
Description: as §1
as §2, with “the cell line DHL-4” for “the PBMCs”, “FIG. 10” for “FIG. 5”, “relative apoptosis” for “relative viability”, “as 0%” for “as 100° A)”

[11] = per day; cited from earlier work

For Cc1cc(C2CCCCC2)n(O)c(=O)c1 [Ciclopirox, 6-cyclohexyl-1-hydroxy-4-methyl-1,2-dihydropyridin-2-one], the solubility in methanol ([1]; methanol) is given as “soluble”.
C=C(CC)C(=O)c1ccc(OCC(=O)O)c(Cl)c1Cl [EA, 2-[2,3-dichloro-4-(2-methylidenebutanoyl)phenoxy]acetic acid] gave a viability at 24 h, 30 μM ([2]; 30 μM EA, 24 h) of 98.9%, a viability at 48 h, 30 μM ([2]; 30 μM EA, 48 h) of 94.9% and a viability at 72 h, 30 μM ([2]; 30 μM EA, 72 h) of 89.5%. It also gave a viability at 30 µM (cell line DHL-4 [3]; 24 h) of 91.7%, a viability at 30 µM (cell line DHL-4 [3]; 48 h) of 96% and a viability at 30 µM (cell line DHL-4 [3]; 72 h) of 97.6%. The “solubility in most organic solvents” value ([1]; e.g. alcohols, chloroform, and benzene) was “soluble”, the solubility in water ([1]; water) was “slightly soluble” and the viability at 30 µM (cell line Raji [4]; 24 h) was 95.7%. The viability at 30 µM (cell line Raji [4]; 48 h) was 90.7%, the viability at 30 µM (cell line Raji [4]; 72 h) was 78.9% and the relative apoptosis (cell line Raji [5]; 30 μM EA, 24 h) was 2.4%. For the same compound, the relative apoptosis (cell line Raji [5]; 30 μM EA, 48 h) was 4.8%, the relative apoptosis (cell line Raji [5]; 30 μM EA, 72 h) was 9.8% and the viability at 30 µM (cell line OPM-2 [6]; 24 h) was 96.4%. For the same compound, the viability at 30 µM (cell line OPM-2 [6]; 48 h) was 84.2%, the viability at 30 µM (cell line OPM-2 [6]; 72 h) was 58% and the viability at 30 µM (cell line LAM-53 [7]; 24 h) was 96.7%. For the same compound, the viability at 30 µM (cell line LAM-53 [7]; 48 h) was 96.2%, the viability at 30 µM (cell line LAM-53 [7]; 72 h) was 91% and the relative apoptosis (PBMCs; 30 μM EA, 24 h) was 1.3%. It also gave a relative apoptosis (PBMCs; 30 μM EA, 48 h) of 3.9%, a relative apoptosis (PBMCs; 30 μM EA, 72 h) of 7.6% and a relative apoptosis (cell line OPM-2 [8]; 30 μM EA, 24 h) of 2.3%. For the same compound, the relative apoptosis (cell line OPM-2 [8]; 30 μM EA, 48 h) was 7.5%, the relative apoptosis (cell line OPM-2 [8]; 30 μM EA, 72 h) was 13.4% and the relative apoptosis (cell line LAM-53 [9]; 30 μM EA, 24 h) was 0.7%. It also gave a relative apoptosis (cell line LAM-53 [9]; 30 μM EA, 48 h) of 1.5%, a relative apoptosis (cell line LAM-53 [9]; 30 μM EA, 72 h) of 1.8% and a relative apoptosis (cell line DHL-4 [10]; 30 μM EA, 24 h) of 6.7%. For the same compound, the relative apoptosis (cell line DHL-4 [10]; 30 μM EA, 48 h) was 2.0% and the relative apoptosis (cell line DHL-4 [10]; 30 μM EA, 72 h) was 1.2%.
Work on Cc1cc(C2CCCCC2)n(O)c(=O)c1 [cic, Ciclopirox olamine] yielded a viability at 24 h, 10 μM ([2]; 10 μM cic, 24 h) of 99.3%, a viability at 48 h, 10 μM ([2]; 10 μM cic, 48 h) of 98.3% and a viability at 72 h, 10 μM ([2]; 10 μM cic, 72 h) of 94.4%. The viability at 10 µM (cell line DHL-4 [3]; 24 h) was 93%, the viability at 10 µM (cell line DHL-4 [3]; 48 h) was 90.3% and the viability at 10 µM (cell line DHL-4 [3]; 72 h) was 55.9%. For the same compound, the viability at 10 µM (cell line Raji [4]; 24 h) was 83.8%, the viability at 10 µM (cell line Raji [4]; 48 h) was 45.6% and the viability at 10 µM (cell line Raji [4]; 72 h) was 21.7%. It also gave a relative apoptosis (cell line Raji [5]; 10 μM cic, 24 h) of 14.1%, a relative apoptosis (cell line Raji [5]; 10 μM cic, 48 h) of 31.0% and a relative apoptosis (cell line Raji [5]; 10 μM cic, 72 h) of 30.0%. It also gave a viability at 10 µM (cell line OPM-2 [6]; 24 h) of 93.6%, a viability at 10 µM (cell line OPM-2 [6]; 48 h) of 72.5% and a viability at 10 µM (cell line OPM-2 [6]; 72 h) of 29.4%. It also gave a relative viability (cell line LAM-53 [7]; 10 μM cic, 48 h) of 52.9%, a viability at 10 µM (cell line LAM-53 [7]; 24 h, 10 μM cic) of 76.2% and a viability at 10 µM (cell line LAM-53 [7]; 72 h, 10 μM cic) of 32.4%. For the same compound, the relative apoptosis (PBMCs; 10 μM cic, 24 h) was 0.4%, the relative apoptosis (PBMCs; 10 μM cic, 48 h) was 1.4% and the relative apoptosis (PBMCs; 10 μM cic, 72 h) was 3.3%. It also gave a relative apoptosis (cell line OPM-2 [8]; 10 μM cic, 24 h) of 4.0%, a relative apoptosis (cell line OPM-2 [8]; 10 μM cic, 48 h) of 15.3% and a relative apoptosis (cell line OPM-2 [8]; 10 μM cic, 72 h) of 34.8%. For the same compound, the “maximum concentration in human systemic tolerability studies” value [11] was 275 µM, the relative apoptosis (cell line LAM-53 [9]; 10 μM cic, 24 h) was 12.2% and the relative apoptosis (cell line LAM-53 [9]; 10 μM cic, 48 h) was 34.4%. For the same compound, the relative apoptosis (cell line LAM-53 [9]; 10 μM cic, 72 h) was 51.2%, the relative apoptosis (cell line DHL-4 [10]; 10 μM cic, 24 h) was 5.8% and the relative apoptosis (cell line DHL-4 [10]; 10 μM cic, 48 h) was 5.0%. The relative apoptosis (cell line DHL-4 [10]; 10 μM cic, 72 h) was 30.8%.
